Laboratory results from BigSolDB 2.1.

CC(=O)Nc1ccc(OC(=O)c2ccccc2OC(C)=O)cc1
solubility (mole fraction)
Conditions | 278.15 K | 283.15 K | 288.15 K | 293.15 K | 298.15 K | 303.15 K | 308.15 K | 313.15 K | 318.15 K | 323.15 K
in DMAc | 0.058 | 0.0623 | 0.0687 | 0.075 | 0.0814 | 0.0875 | 0.0954 | 0.103 | 0.112 | 0.12
in DMSO | – | – | – | 0.0385 | 0.0463 | 0.0544 | 0.0637 | 0.0743 | 0.0865 | 0.1
in methyl acetate | 0.0011 | 0.00138 | 0.00164 | 0.00199 | 0.00238 | 0.00289 | 0.00344 | 0.00412 | 0.00496 | 0.00602
in n-butyl acetate | 0.000482 | 0.000609 | 0.000727 | 0.000899 | 0.00106 | 0.0013 | 0.0016 | 0.00189 | 0.00229 | 0.00272
in n-pentyl acetate | 0.000309 | 0.000392 | 0.000509 | 0.000638 | 0.000794 | 0.000983 | 0.00121 | 0.00149 | 0.0018 | 0.00217
in n-propyl acetate | 0.00053 | 0.000653 | 0.000831 | 0.00104 | 0.00127 | 0.00154 | 0.00186 | 0.00221 | 0.00275 | 0.00324
